According to patent US5770688A, “Method and composition for the treatment of mammalian HIV infection” (GSF-Forschungszentrum fur Umwelt und Gesundheit GmbH, priority 1989, dated 1998):
Entries after “also recorded” stand apart in the source; their conditions may differ.

Assay: tolerability and clinical investigation of FIV infected cats
Assay type: in vivo
Source text: In the following series of experiments, two naturally FIV infected cats (M and G) were used. These particular cats were kept for more than one year under constant observation in the Clinic for Internal Medicine at the Veterinary School in Munich, Germany before the onset of melittin (Seq. ID NO:1) treatment. In each cat, FIV infection had been confirmed by detecting an antibody ELISA. In this regard, a test marketed under the tradename PetChek® and which is available from the same company in Portland, Maine was employed. As best seen in FIG. 53. The antibody titer against FIV in both cats was approximately 1:50. As a general matter, the overall physical condition of both cats was good during the observation period. […]
During the experiment it was determined that detectable blood serum levels of melittin (Seq. ID NO:1) of about 5 ng/ml could be detected following an injection of melittin equal to […] a few minutes after injection. […] In vitro data has shown that melittin, after this time interval, is found within the cells where it can be detected in tact for more than 48 hours. […] The quantitative effect of melittin on FIV replication was determined quantitatively by utilizing FIV-PCR employing nested primers from the gag region. Quantification was based upon the determination of amplified product in identical samples which have been amplified after different cycle times. […]

## Gly-Ile-Gly-Ala-Val-Leu-Lys-Val-Leu-Thr-Thr-Gly-Leu-Pro-Ala-Leu-Ile-Ser-Trp-Ile-Lys-Arg-Lys-Arg-Gln-Gln-Amide [melittin]
50 to 500 mg/kg s.c. twice weekly, eight weeks
  tolerability / adverse reactions: appeared to tolerate the numerous injections without any clinically noticeable negative reactions; also recorded: no adverse reaction or clinical abnormalities could be observed in either animal
Cat M
  pneumonitis: improved during the melittin treatment
